Tested on: GMPPNP-loaded H-Ras or GTP-loaded K-Ras
Experiment: Fluorescence polarization competition assay with TAMRA-labeled probe R4007
Assay type: binding, human
Conditions: 120 nM Ras, 30 nM probe R4007, 60 minutes at room temperature; read-out: Probe displacement (nM IC50)
Description: R4000 was evaluated for competition with a TAMRA labeled probe (R4007) based on peptide R4000. The assay was performed in 384-well black, non-binding plates (Greiner Bio-One, Monroe, N.C.). GMPPNP-loaded H-Ras or GTP-loaded K-Ras, diluted in FP assay buffer (20 mM Tris-HCl, pH 7.5, 50 mM NaCl, 5 mM MgCl2, 1 mM EDTA, 0.002% Triton-X-100) for a final concentration of 120 nM was incubated with 30 nM R4007 for 20 minutes at room temperature. R4000 was serially diluted, added to the assay and incubated for 60 minutes at room temperature. Fluorescence polarization was detected with a SpectraMax Paradigm plate reader (Molecular Devices, Sunnyvale, Calif.) using the Rhodamine FP detection cartridge (535 nm/595 nm). Data was analyzed using GraphPad Prism and Ki determined using One Site Ki Curve fitting model.
Peptides were evaluated for competition with R4007, a probe consisting of TAMRA-labeled R4000, using a fluorescence polarization (FP) competition assay. The assay was performed in 384-well black, non-binding plates (Greiner Bio-One, Monroe, N.C.). GMPPNP-loaded H-Ras or GTP- loaded K-Ras, diluted in FP assay buffer (20 mM Tris-HCl, pH 7.5, 50 mM NaCl, 5 mM MgCl2, 1 mM EDTA, 0.002% Triton-X-100) for a final concentration of 120 nM was incubated with 30 nM probe for 20 minutes at room temperature. Peptides were serially diluted, added to the assay and incubated for 60 minutes at room temperature. Fluorescence was detected with a SpectraMax Paradigm plate reader (Molecular Devices, Sunnyvale, Calif.) using the Rhodamine FP detection cartridge (535 nm/595 nm). Data was analyzed and Ki determined using a One Site Ki Curve fitting model. Percent inhibition for each data point was calculated relative to the maximal binding in test compound-free control wells (showing no probe displacement) and Ras-free control wells (showing no probe binding) and the half-maximal inhibitory concentration (IC50), based on probe displacement, was determined.

Work on CCC[C@H](NC(C)=O)C(=O)N[C@H]1CSCc2cccc(c2)CSC[C@@H](C(=O)N[C@H](CO)C(=O)N[C@@H](CCCCN)C(=O)NCC(=O)N[C@@H](CS)C(=O)N[C@H](C(=O)N[C@H](C(=O)N[C@@H](CCSC)C(=O)O)[C@@H](C)CC)C(C)C)NC(=O)CN(C)C(=O)[C@H](Cc2ccc(F)cc2)N(C)C(=O)[C@H](Cc2ccc(O)cc2)NC(=O)[C@H](Cc2c[nH]c3ncccc23)NC(=O)[C@H](c2ccccc2)NC(=O)[C@H](C)N(C)C(=O)[C@H](Cc2c[nH]cn2)NC(=O)[C@H](CCCCN)NC(=O)[C@H](C(C)(C)C)NC(=O)[C@H](Cc2ccc(O)cc2)NC1=O (relative stereo) [Compound R4105, ACE-NVA-CYS*-TYR-TBG-LYS-HIS-NMA-PHG-7AW-TYR-MFF-SAR-CYS*-DSER-LYS-GLY-CYS-VAL-ILE-MET] yielded an IC50 of 3.31 nM.
With CCC[C@H](NC(=O)CCCCCCNC(=O)[C@H](CC(C)C)NC(=O)[C@@H](O)[C@H](N)Cc1ccccc1)C(=O)N[C@H]1CSCc2cccc(c2)CSC[C@@H](C(N)=O)NC(=O)CN(C)C(=O)[C@H](Cc2ccc(F)cc2)N(C)C(=O)[C@H](Cc2ccc(O)cc2)NC(=O)[C@H](Cc2c[nH]c3ncccc23)NC(=O)[C@H](c2ccccc2)NC(=O)[C@H](C)N(C)C(=O)[C@H](Cc2c[nH]cn2)NC(=O)[C@H](CCCCN)NC(=O)[C@H](C(C)(C)C)NC(=O)[C@H](Cc2ccc(O)cc2)NC1=O (relative stereo) [Compound R4106, UBX-AHPA-NVA-CYS*-TYR-TBG-LYS-HIS-NMA-PHG-7AW-TYR-MFF-SAR-CYS*-NH2] the IC50 was 8.38 nM.
For C#CC[C@H](NC(=O)CCOCCOCCOCCOCCNC(=O)[C@@H]1CSCc2cccc(c2)CSC[C@H](NC(=O)[C@H](CCC)NC(C)=O)C(=O)N[C@@H](Cc2ccc(O)cc2)C(=O)N[C@@H](C(C)(C)C)C(=O)N[C@@H](CCCCN)C(=O)N[C@@H](Cc2c[nH]cn2)C(=O)N(C)[C@@H](C)C(=O)N[C@@H](c2ccccc2)C(=O)N[C@@H](Cc2c[nH]c3ncccc23)C(=O)N[C@@H](Cc2ccc(O)cc2)C(=O)N(C)[C@@H](Cc2ccc(F)cc2)C(=O)N(C)CC(=O)N1)C(N)=O (relative stereo) [Compound R4107, ACE-NVA-CYS*-TYR-TBG-LYS-HIS-NMA-PHG-7AW-TYR-MFF-SAR-CYS*-PEG4PA-PRG-NH2], the IC50 was 9.42 nM.
CCC[C@H](NC(C)=O)C(=O)N[C@H]1CSCc2cccc(c2)CSC[C@@H](C(=O)O)NC(=O)CN(C)C(=O)[C@H](Cc2ccc(F)cc2)N(C)C(=O)[C@H](Cc2ccc(O)cc2)NC(=O)[C@H](Cc2c[nH]c3ncccc23)NC(=O)[C@H](c2ccccc2)NC(=O)[C@H](C)N(C)C(=O)[C@H](Cc2c[nH]cn2)NC(=O)[C@H](CCCCN)NC(=O)[C@H](C(C)(C)C)NC(=O)[C@H](Cc2ccc(O)cc2)NC1=O (relative stereo) [Compound R4108, ACE-NVA-CYS*-TYR-TBG-LYS-HIS-NMA-PHG-7AW-TYR-MFF-SAR-CYS*] gave an IC50 of 9.45 nM.
With CCC[C@H](NC(C)=O)C(=O)N[C@H]1CSCc2cccc(c2)CSC[C@@H](C(=O)N[C@H](CO)C(=O)N[C@@H](CCCCN)C(=O)NCC(=O)N[C@@H](CSSC(C)(C)C)C(=O)N[C@H](C(=O)N[C@H](C(=O)N[C@@H](CCSC)C(=O)O)[C@@H](C)CC)C(C)C)NC(=O)CN(C)C(=O)[C@H](Cc2ccc(F)cc2)N(C)C(=O)[C@H](Cc2ccc(O)cc2)NC(=O)[C@H](Cc2c[nH]c3ncccc23)NC(=O)[C@H](c2ccccc2)NC(=O)[C@H](C)N(C)C(=O)[C@H](Cc2c[nH]cn2)NC(=O)[C@H](CCCCN)NC(=O)[C@H](C(C)(C)C)NC(=O)[C@H](Cc2ccc(O)cc2)NC1=O (relative stereo) [Compound R4109, ACE-NVA-CYS*-TYR-TBG-LYS-HIS-NMA-PHG-7AW-TYR-MFF-SAR-CYS*-DSER-LYS-GLY-TDSPA-VAL-ILE-MET] the IC50 was 14.2 nM.
With CCC[C@H](NC(C)=O)C(=O)N[C@H]1CSCc2cccc(c2)CSC[C@@H](C(=O)N[C@H](CO)C(=O)N[C@@H](CCCCN)C(=O)NCC(=O)N[C@@H](CSSC(C)(C)C)C(=O)N[C@H](C(=O)N[C@H](C(=O)N[C@@H](CC(C)C)C(=O)O)C(C)C)C(C)C)NC(=O)CN(C)C(=O)[C@H](Cc2ccc(F)cc2)N(C)C(=O)[C@H](Cc2ccc(O)cc2)NC(=O)[C@H](Cc2c[nH]c3ncccc23)NC(=O)[C@H](c2ccccc2)NC(=O)[C@H](C)N(C)C(=O)[C@H](Cc2c[nH]cn2)NC(=O)[C@H](CCCCN)NC(=O)[C@H](C(C)(C)C)NC(=O)[C@H](Cc2ccc(O)cc2)NC1=O (relative stereo) [Compound R4110, ACE-NVA-CYS*-TYR-TBG-LYS-HIS-NMA-PHG-7AW-TYR-MFF-SAR-CYS*-DSER-LYS-GLY-TDSPA-VAL-VAL-LEU] the IC50 was 16.4 nM.
CCC[C@H](NC(C)=O)C(=O)N[C@H]1CSCc2cccc(c2)CSC[C@@H](C(=O)N[C@H](CO)C(=O)N[C@H](C)C(=O)N[C@@H](CCCCN)C(=O)N[C@@H](CSSC(C)(C)C)C(=O)N[C@H](C(=O)N[C@H](C(=O)N[C@@H](CCSC)C(=O)O)[C@@H](C)CC)C(C)C)NC(=O)CN(C)C(=O)[C@H](Cc2ccc(F)cc2)N(C)C(=O)[C@H](Cc2ccc(O)cc2)NC(=O)[C@H](Cc2c[nH]c3ncccc23)NC(=O)[C@H](c2ccccc2)NC(=O)[C@H](C)N(C)C(=O)[C@H](Cc2c[nH]cn2)NC(=O)[C@H](CCCCN)NC(=O)[C@H](C(C)(C)C)NC(=O)[C@H](Cc2ccc(O)cc2)NC1=O (relative stereo) [Compound R4111, ACE-NVA-CYS*-TYR-TBG-LYS-HIS-NMA-PHG-7AW-TYR-MFF-SAR-CYS*-DSER-DALA-LYS-TDSPA-VAL-ILE-MET] gave an IC50 of 20.8 nM.
CC(=O)N[C@H]1CSCc2cccc(c2)CSC[C@@H](C(N)=O)NC(=O)CN(C)C(=O)[C@H](Cc2ccc(F)cc2)N(C)C(=O)[C@H](Cc2ccc(O)cc2)NC(=O)[C@H](Cc2c[nH]c3ncccc23)NC(=O)[C@H](c2ccccc2)NC(=O)[C@H](C)N(C)C(=O)[C@H](Cc2c[nH]cn2)NC(=O)[C@H](CCCCN)NC(=O)[C@H](C(C)(C)C)NC(=O)[C@H](Cc2ccc(O)cc2)NC1=O (relative stereo) [Compound R4112, ACE-CYS*-TYR-TBG-LYS-HIS-NMA-PHG-7AW-TYR-MFF-SAR-CYS*-NH2] gave an IC50 of 21.4 nM.
Work on CCC[C@H](N)C(=O)N[C@H]1CSCc2cccc(c2)CSC[C@@H](C(=O)N[C@H](CO)C(=O)N[C@@H](CCCCN)C(=O)NCC(=O)N[C@@H](CSSC(C)(C)C)C(=O)N[C@H](C(=O)N[C@H](C(=O)N[C@@H](CCSC)C(=O)O)[C@@H](C)CC)C(C)C)NC(=O)CN(C)C(=O)[C@H](Cc2ccc(F)cc2)N(C)C(=O)[C@H](Cc2ccc(O)cc2)NC(=O)[C@H](Cc2c[nH]c3ncccc23)NC(=O)[C@H](c2ccccc2)NC(=O)[C@H](C)N(C)C(=O)[C@H](Cc2c[nH]cn2)NC(=O)[C@H](CCCCN)NC(=O)[C@H](C(C)(C)C)NC(=O)[C@H](Cc2ccc(O)cc2)NC1=O (relative stereo) [Compound R4113, NVA-CYS*-TYR-TBG-LYS-HIS-NMA-PHG-7AW-TYR-MFF-SAR-CYS*-DSER-LYS-GLY-TDSPA-VAL-ILE-MET] yielded an IC50 of 32.7 nM.
In the case of CCC[C@H](N)C(=O)N[C@H]1CSCc2cccc(c2)CSC[C@@H](C(=O)N[C@H](CO)C(=O)N[C@@H](CCCCN)C(=O)NCC(=O)N[C@@H](CS)C(=O)N[C@H](C(=O)N[C@H](C(=O)N[C@@H](CCSC)C(=O)O)[C@@H](C)CC)C(C)C)NC(=O)CN(C)C(=O)[C@H](Cc2ccc(F)cc2)N(C)C(=O)[C@H](Cc2ccc(O)cc2)NC(=O)[C@H](Cc2c[nH]c3ncccc23)NC(=O)[C@H](c2ccccc2)NC(=O)[C@H](C)N(C)C(=O)[C@H](Cc2c[nH]cn2)NC(=O)[C@H](CCCCN)NC(=O)[C@H](C(C)(C)C)NC(=O)[C@H](Cc2ccc(O)cc2)NC1=O (relative stereo) [Compound R4114, NVA-CYS*-TYR-TBG-LYS-HIS-NMA-PHG-7AW-TYR-MFF-SAR-CYS*-DSER-LYS-GLY-CYS-VAL-ILE-MET], the IC50 is reported as 32.7 nM.
Work on CCC[C@H](NC(C)=O)C(=O)N[C@H]1CSCc2cccc(c2)CSC[C@@H](C(N)=O)NC(=O)CN(C)C(=O)[C@H](Cc2ccc(F)cc2)N(C)C(=O)[C@H](Cc2ccc(O)cc2)NC(=O)[C@H](Cc2c[nH]c3ccccc23)NC(=O)[C@H](c2ccccc2)NC(=O)[C@H](C)N(C)C(=O)[C@H](Cc2c[nH]cn2)NC(=O)[C@H](CCCCN)NC(=O)[C@H](C(C)(C)C)NC(=O)[C@H](Cc2ccc(O)cc2)NC1=O (relative stereo) [Compound R4115, ACE-NVA-CYS*-TYR-TBG-LYS-HIS-NMA-PHG-TRP-TYR-MFF-SAR-CYS*-NH2] yielded an IC50 of 34.1 nM.
